Measured values taken from patent publication US10045980B2, “Inhibitor of p38 map kinase” (RESPIVERT LTD, priority 2014, dated 2018).
Counter-ions that a name gives are not always drawn.

Tests used:
BEAS2B cells = assay: Poly I:C-induced ICAM-1 expression in BEAS2B cells; format: cell-based; details: Homo sapiens, BEAS-2B, 18 h after poly I:C transfection, read-out: PolyIC/ICAM1 IC50 (BEAS2B)
Procedure: Poly I:C was used in these studies as a simple, RNA virus mimic. Poly I:C-Oligofectamine mixture (2% Oligofectamine±1 μg/mL Poly I:C, 25 μL; Life Technologies and Invivogen Ltd., San Diego, Calif., respectively) was transfected into BEAS2B cells (human bronchial epithelial cells, ATCC). Cells were pre-incubated with final concentrations of test compounds for 2 h and the level of ICAM-1 expression on the cell surface was determined by cell-based ELISA. […]
The cells were washed with PBS-Tween (3×200 μL) and incubated with the secondary antibody (100 μL; HRP-conjugated anti-rabbit IgG, Dako Ltd., Glostrup, Denmark). […] The ICAM-1 signal was detected by reading the absorbance at 450 nm against a reference wavelength of 655 nm using a spectrophotometer. The cells were then washed with PBS-Tween (3×200 μL) and total cell numbers in each well were determined by reading absorbance at 595 nm after Crystal Violet staining (50 μL of a 2% solution in PBS) and elution by 1% SDS solution (100 μL) in PBS. The measured OD 450-655 readings were corrected for cell number by dividing with the OD595 reading in each well. The inhibition of ICAM-1 expression was calculated at each concentration of test compound by comparison with vehicle control.

[1] = Dynamic vapour sorption (DVS); format: physicochemical; details: 25° C., RH 0-95%
Procedure: About 20 mg of test compound was transferred into a SMS dynamic vapor sorption and record the weight change with respect to the atmospheric humidity at 25° C.
The following parameters were used:
drying: 60 min. under dry nitrogen
equilibrium: 60 min/Step.

[2] = Chemical stability testing, degradation by UPLC; format: physicochemical; details: stored up to 30 days, 50-80° C./10-75% RH; data not shown
Procedure: Samples were extracted with solvent mixture (DMSO/water 80:20) (7 mL) in a 10 mL vial.
UPLC chromatography was performed using the following parameters:
Analysis run time: 36 min Data collection time: 30 min Injection volume: 5 μL Wavelength: scan between 200 and 400 nm Wavelength used for content uniformity calculations: 334.0 nm
The compositions of Examples 4d, 4e, 4f, 4g, 4h and 4i were stored for 14 and 30 days under conditions of 50° C./75% RH, 60° C./30% RH, 60° C./50% RH, 70° C./10% RH, 70° C./75% RH and 80° C./50% RH.

[3] = system: sputum macrophages from COPD patients; assay: Cytokine production in LPS-treated sputum macrophages from COPD patients; format: cell-based; details: Homo sapiens, Macrophage; at 0.1 μg/mL; LPS 1 μg/mL, 18 h; read-out: Percent Inhibition IL-6
Procedure: Patients with COPD inhaled a nebulised solution of 3% (w/v) hypertonic saline using an ultrasonic nebuliser (Devilbiss, Carthage, Mo.) with tidal breathing for 5 min. This procedure was repeated a maximum of three times until enough sputum was obtained. The sputum samples were homogenized and mixed vigorously using a vortex mixer in 0.02% v/v dithiothreitol (DTT) solution. The samples were re-suspended in PBS (40 mL) followed by centrifugation at 1500 rpm at 4° C. for 10 min to obtain sputum cell pellets. The pellets were washed with PBS (40 mL). […]
Where appropriate, 1 μL of a solution containing either the test compound or reference article at the stated concentrations (either 0.1 μg/mL, 0.01 μg/mL, or 0.001 μg/mL) or alternatively 1 μL of DMSO as the vehicle control was added to each well (200 μL in media) and the cells were incubated for 2 h. […] After washing with 200 μL wash buffer per well, the beads were resuspended in sheath fluid (150 μL) and analyzed immediately. The level of each analyte in the supernatant was calculated using Xcel Fit software with a 4 or 5-parameter equation using each standard curve. The inhibitions of each cytokine production were calculated at each concentration by comparison with vehicle control.

COCC(=O)Nc1cc(Oc2ccc(NC(=O)Nc3cc(C(C)(C)C)nn3-c3ccc(C)cc3)c3ccccc23)ccn1 [Reference Compound, N-(4-(4-(3-(3-tert-Butyl-1-p-tolyl-1H-pyrazol-5-yl)ureido)naphthalen-1-yloxy)pyridin-2-yl)-2-methoxyacetamide, reference compound]
IC50 (BEAS2B cells): 3.8 nM

CCc1cncc(Nc2cc(COc3ccc(NC(=O)Nc4cc(C(C)(C)C)nn4-c4ccc(C)cc4)c4ccccc34)ccn2)n1 [Example 2A, 1-(3-(tert-butyl)-1-(p-tolyl)-1H-pyrazol-5-yl)-3-(4-((2-((6-ethylpyrazin-2-yl)amino)pyridin-4-yl)methoxy)naphthalen-1-yl)urea maleate (Form 2)]
hygroscopicity (DVS) [1]: does not appear to be hygroscopic
hygroscopicity (DVS) ([1]; listed as Example 3B): appeared not to be hygroscopic
percentage of total degradation, unmicronised and unblended material [2]: always lower than that for the free base

CCC(=O)O[C@]1(C(=O)SCF)[C@H](C)C[C@H]2[C@@H]3C[C@H](F)C4=CC(=O)C=C[C@]4(C)[C@@]3(F)[C@@H](O)C[C@@]21C [Fluticasone propionate, fluticasone propionate, reference compound]
inhibition at 0.1 µg/mL [3]: 29 ± 21%
